According to ChEMBL document CHEMBL1127900, “Preparative chiral HPLC separation of all possible stereoisomers of LY191704 and LY266111 and their in vitro inhibition of human types 1 and 2 steroid 5-reductases” (Bioorg Med Chem Lett, 1994):

Columns and labels:
[1] = target: T1, 3-oxo-5-alpha-steroid 4-dehydrogenase 1 (Homo sapiens, UniProt P18405); test: In vitro inhibition of recombinant human Steroid 5-alpha-reductase type I; conditions: read-out: Ki app
T1 sequence (P18405 whole entry): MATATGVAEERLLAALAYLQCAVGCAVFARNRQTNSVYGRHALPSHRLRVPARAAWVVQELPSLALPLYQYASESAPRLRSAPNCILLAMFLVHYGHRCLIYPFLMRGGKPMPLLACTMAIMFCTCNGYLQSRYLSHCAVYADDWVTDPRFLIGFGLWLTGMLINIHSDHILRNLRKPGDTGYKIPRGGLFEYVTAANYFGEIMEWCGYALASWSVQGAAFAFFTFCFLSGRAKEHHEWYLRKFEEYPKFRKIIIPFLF

[2] = target: T2, 3-oxo-5-alpha-steroid 4-dehydrogenase 2 (Homo sapiens, UniProt P31213); test: In vitro inhibition of recombinant human Steroid 5-alpha-reductase type 2; conditions: read-out: Ki app
T2 sequence (P31213 whole entry): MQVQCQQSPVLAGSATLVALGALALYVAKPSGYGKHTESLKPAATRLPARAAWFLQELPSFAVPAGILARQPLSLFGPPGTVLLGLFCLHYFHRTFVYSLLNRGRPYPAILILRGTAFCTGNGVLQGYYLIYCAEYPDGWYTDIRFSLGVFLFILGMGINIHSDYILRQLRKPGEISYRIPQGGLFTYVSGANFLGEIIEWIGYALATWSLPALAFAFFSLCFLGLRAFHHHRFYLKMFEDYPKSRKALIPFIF

[3] = target: T2, 3-oxo-5-alpha-steroid 4-dehydrogenase 2; test: In vitro inhibition of recombinant human Steroid 5-alpha-reductase type 2; No inhibition

Compound	Ki [1] [nM]	Ki [2] [nM]	Ki app [3]
CN1C(=O)CC[C@@H]2c3ccc(Cl)cc3CC[C@@H]21 (stereo in doubt; (+)-3)	15	1000	–
CN1C(=O)CC[C@@H]2c3ccc(Cl)cc3CC[C@H]21 (stereo in doubt; (-)) [BEXLOSTERIDE]	4	1200	–
CN1C(=O)CC[C@]2(C)c3ccc(Cl)cc3CC[C@H]12 (stereo in doubt; (+)-4)	4000	> 2500	–
CN1C(=O)CC[C@@]2(C)C1=CCc1cc(Cl)ccc12 (racemic)	180	–	Not Active
CN1C(=O)CCC2=C1CCc1cc(Cl)ccc12	17	455	–
CN1C(=O)CC[C@]2(C)c3ccc(Cl)cc3CC[C@@H]12 (stereo in doubt; (-))	10	> 1000	–
CN1C(=O)CC[C@]2(C)c3ccc(Cl)cc3CC[C@@H]12 (stereo in doubt; (+))	9	> 1000	–
CN1C(=O)CC[C@@H]2c3ccc(Cl)cc3CC[C@H]21 (stereo in doubt; (+)) [BEXLOSTERIDE]	6	1000	–
CN1C(=O)CC[C@]2(C)c3ccc(Cl)cc3CC[C@H]12 (stereo in doubt; (-)-4)	7000	> 2500	–
CN1C(=O)CC[C@@H]2c3ccc(Cl)cc3CC[C@@H]21 (stereo in doubt; (-)-3)	15	5400	–
